Measured values taken from ChEMBL document CHEMBL1140314, “Adamantyl cannabinoids: a novel class of cannabinergic ligands” (J Med Chem, 2005).

Columns and labels:
Cannabinoid receptor 1 = Cannabinoid receptor 1 (Rattus norvegicus, UniProt P20272); experiment: Inhibition of [3H]CP-55940 binding to cannabinoid receptor 1 of rat brain
Cannabinoid receptor 2 = Cannabinoid receptor 2 (Mus musculus, UniProt P47936); experiment: Inhibition of [3H]CP-55940 binding to cannabinoid receptor 2 of mouse spleen membranes; assay type: tissue-based
Sequence of Cannabinoid receptor 2 (P47936 whole entry): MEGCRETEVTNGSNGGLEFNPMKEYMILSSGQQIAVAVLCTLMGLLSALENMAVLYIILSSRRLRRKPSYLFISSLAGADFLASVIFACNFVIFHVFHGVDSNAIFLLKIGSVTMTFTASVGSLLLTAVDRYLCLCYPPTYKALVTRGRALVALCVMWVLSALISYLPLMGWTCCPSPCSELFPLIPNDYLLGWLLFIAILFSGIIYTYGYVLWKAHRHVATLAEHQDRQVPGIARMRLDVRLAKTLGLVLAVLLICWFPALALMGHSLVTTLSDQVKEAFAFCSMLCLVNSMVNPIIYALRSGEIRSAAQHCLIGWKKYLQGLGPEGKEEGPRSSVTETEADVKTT

Rattus norvegicus [1] = experiment: In vivo cannabinergic activity in rat after 90 min of dose administration (0.03-1.8 mg/kg) using drug discrimination assay; assay type: functional
Rattus norvegicus [2] = experiment: In vivo cannabinergic activity in rat after 30 min of dose administration (0.03-1.8 mg/kg) using drug discrimination assay; assay type: functional; conditions: 0.5 h

Sequence of Cannabinoid receptor 1 (P20272 whole entry): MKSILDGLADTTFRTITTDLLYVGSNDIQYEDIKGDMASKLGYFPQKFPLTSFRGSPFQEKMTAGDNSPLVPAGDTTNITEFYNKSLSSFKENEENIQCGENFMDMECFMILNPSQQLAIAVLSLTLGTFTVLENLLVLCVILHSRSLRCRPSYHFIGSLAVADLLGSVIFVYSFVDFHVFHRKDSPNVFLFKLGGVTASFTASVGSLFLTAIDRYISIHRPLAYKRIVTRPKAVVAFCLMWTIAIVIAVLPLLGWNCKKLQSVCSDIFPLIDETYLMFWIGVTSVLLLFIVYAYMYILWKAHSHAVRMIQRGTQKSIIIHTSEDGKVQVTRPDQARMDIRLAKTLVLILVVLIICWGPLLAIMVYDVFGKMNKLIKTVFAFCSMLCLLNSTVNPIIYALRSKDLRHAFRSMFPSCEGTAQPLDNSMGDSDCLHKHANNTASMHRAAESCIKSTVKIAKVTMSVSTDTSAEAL

| SMILES | Ki (Cannabinoid receptor 1) [nM] | Ki (Cannabinoid receptor 2) [nM] | ED50 (Rattus norvegicus [1]) [mg/kg] | ED50 (Rattus norvegicus [1]; Rattus norvegicus, 1.5 h, read-out: ED50) [mg/kg] | ED50 (Rattus norvegicus [2]) [mg/kg] |
| --- | --- | --- | --- | --- | --- |
| CC1=CC[C@@H]2[C@@H](C1)c1c(O)cc(C=C3C4CC5CC(C4)CC3C5)cc1OC2(C)C | 48.6 | 8.9 |  |  |  |
| CC1=CC[C@@H]2[C@@H](C1)c1c(O)cc(C3C4CC5CC(C4)CC3C5)cc1OC2(C)C (stereo partly drawn) | 34.9 | 14 |  |  |  |
| CC1=CC[C@@H]2[C@@H](C1)c1c(O)cc(CC3C4CC5CC(C4)CC3C5)cc1OC2(C)C (stereo partly drawn) | 79.7 | 76 |  |  |  |
| CC1=CC[C@@H]2[C@@H](C1)c1c(O)cc(C34CC5CC(CC(C5)C3)C4)cc1OC2(C)C | 6.8 | 52 | 0.41 | 0.44 | 0.68 |
| CC1=CC[C@@H]2[C@@H](C1)c1c(O)cc(CC34CC5CC(CC(C5)C3)C4)cc1OC2(C)C | 29.3 | 26.9 |  |  |  |
